Laboratory results as given in patent US20260263533A1, “COMBINATION OF BIFIDOBACTERIUM AND FUCOSYLATED HMO FOR USE IN INCREASING NMN OR NAD+” (DSM IP Assets B.V., priority 2022, published 2026).

How the values were obtained:
B. bifidum 32403 = assay: BioLector growth on carbon sources; type: cell-based, Bifidobacterium bifidum; conditions: for Ability to grow on carbon source: 1% carbon source in MRS without glucose, 37° C., up to 72 hours, anaerobic
Protocol: (§1) Initial overnight cultures in de Man, Rogosa, and Sharpe (MRS) medium with glucose (Merck, cat #110661) were prepared in an anaerobic chamber with mixed gas (90% N2, 5% CO2, and 5% H2) at 37° C. From the overnight cultures strains were subcultured 1:100 or 1:10 (if slow growing) into fresh MRS (with glucose) and grown to mid-log (without shaking) in the anerobic chamber at 37° C. For the carbohydrate utilization analysis, a BioLector (automated culturomics equipment, Biosciences) was used. Cells were inoculated 1:100 into MRS (without glucose, Liofilchem Cat #610144) in a 48 well MTP plate (Biosciences) containing 1% of one of the following carbon sources: glucose, lactose, a HMO mixture (containing 2′FL, 2′FL: DFL (range of 6:1-8:1), 3FL, 3′SL, 6′SL, LNnT and LNT in equal portions), HMO mixture+lactose or sterile DI water (as no sugar control) in a final volume of 2 mL and grown in the BioLector at 37° C. for up to 72 hours, shaking at 400 rpm under anaerobic conditions and continuous nitrogen gas flow. If a strain grew on the HMO mixture the experiment was repeated with the individual HMOs of the mixture as carbon source. Change in biomass, pH, and dissolved oxygen was monitored every 20 minutes by the BioLector. A minimum of two replicates were completed for each carbon source. Samples were transferred to a 96 deep-well plate, spun down at 4000 rpm for 10 min at 4° C., and supernatants removed for analysis or stored at −80° C. until further analysis.

B. bifidum HA-132 = assay: BioLector growth on carbon sources; type: cell-based, Bifidobacterium bifidum; conditions: 1% carbon source in MRS without glucose, 37° C., up to 72 hours, anaerobic
Protocol: as §1

B. bifidum R0071 [1] = assay: BioLector growth on carbon sources; type: cell-based, Bifidobacterium bifidum; parameters: key: +++: fast exponential growth reaching a plateau before 45 hours; ++: slower exponential growth reaching a plateau after 45 hours; +: slow almost linear growth, does not reach plateau during the time of fermentation; −: No significant growth for 50 h or more; conditions: 1% carbon source in MRS without glucose, 37° C., up to 72 hours, anaerobic
Protocol: as §1

B. infantis HA-116 [2] = assay: BioLector growth on carbon sources; type: cell-based, Bifidobacterium infantis; parameters: key: +++: fast exponential growth reaching a plateau before 45 hours; ++: slower exponential growth reaching a plateau after 45 hours; +: slow almost linear growth, does not reach plateau during the time of fermentation; −: No significant growth for 50 h or more; conditions: 1% carbon source in MRS without glucose, 37° C., up to 72 hours, anaerobic
Protocol: as §1

B. infantis R0033 [3] = assay: BioLector growth on carbon sources; type: cell-based, Bifidobacterium infantis; parameters: key: +++: fast exponential growth reaching a plateau before 45 hours; ++: slower exponential growth reaching a plateau after 45 hours; +: slow almost linear growth, does not reach plateau during the time of fermentation; −: No significant growth for 50 h or more; conditions: 1% carbon source in MRS without glucose, 37° C., up to 72 hours, anaerobic
Protocol: as §1

B. bifidum R0071 [4] = assay: Metabolomics of culture supernatants (NMN, NAD+); type: cell-based, Bifidobacterium bifidum
Protocol: as §1, with “analysis. Sample supernatants were analyzed using metabolomics by Metabolon (NC, USA).” for “analysis.”

B. infantis HA-116 [5] = assay: Metabolomics of culture supernatants (NMN, NAD+); type: cell-based, Bifidobacterium infantis
Protocol: as §1, with “[…] Sample supernatants” for “Samples”, “analyzed using metabolomics by Metabolon (NC, USA).” for “transferred to a 96 deep-well plate, spun down at 4000 rpm for 10 min at 4° C., and supernatants removed for analysis or stored at −80° C. until further analysis.”

B. infantis R0033 [6] = assay: Metabolomics of culture supernatants (NMN, NAD+); type: cell-based, Bifidobacterium infantis
Protocol: as §1, with “[…] Sample supernatants” for “Samples”, “analyzed using metabolomics by Metabolon (NC, USA).” for “transferred to a 96 deep-well plate, spun down at 4000 rpm for 10 min at 4° C., and supernatants removed for analysis or stored at −80° C. until further analysis.”

L. reuteri DSM 12246 [7] = assay: BioLector growth on carbon sources; type: cell-based, Lactobacillus reuteri; conditions: FIG. 3B
Protocol: as §1, with “Samples were transferred to a 96 deep-well plate, spun down at 4000 rpm for 10 min at 4° C., and supernatants removed for analysis or stored at −80° C. until further analysis.” left out

L. plantarum TIFN101 [8] = assay: BioLector growth on carbon sources; type: cell-based, Lactobacillus plantarum; conditions: FIG. 3C
Protocol: as §1, with “Samples were transferred to a 96 deep-well plate, spun down at 4000 rpm for 10 min at 4° C., and supernatants removed for analysis or stored at −80° C. until further analysis.” left out

L. reuteri DSM 12246 [9] = assay: Metabolomics of culture supernatants (NMN, NAD+); type: cell-based, Lactobacillus reuteri
Protocol: as §1, with “[…] Sample supernatants” for “Samples”, “analyzed using metabolomics by Metabolon (NC, USA).” for “transferred to a 96 deep-well plate, spun down at 4000 rpm for 10 min at 4° C., and supernatants removed for analysis or stored at −80° C. until further analysis.”

L. plantarum TIFN101 [10] = assay: Metabolomics of culture supernatants (NMN, NAD+); type: cell-based, Lactobacillus plantarum
Protocol: as §1, with “[…] Sample supernatants” for “Samples”, “analyzed using metabolomics by Metabolon (NC, USA).” for “transferred to a 96 deep-well plate, spun down at 4000 rpm for 10 min at 4° C., and supernatants removed for analysis or stored at −80° C. until further analysis.”

SMILES | Ability to grow on carbon source (B. bifidum 32403) | Ability to grow on carbon source (B. bifidum HA-132) | Ability to grow on carbon source (B. bifidum R0071 [1]) | Ability to grow on carbon source (B. infantis HA-116 [2]) | Ability to grow on carbon source (B. infantis R0033 [3]) | NMN production (in words) (B. bifidum R0071 [4]) | NAD+ production compared with growth on lactose (in words) (B. infantis HA-116 [5]) | NAD+ production compared with growth on lactose (in words) (B. infantis R0033 [6]) | Growth on carbon source (in words) (B. bifidum 32403; BioLector, FIG. 3A, FIG. 6) | Growth on carbon source (in words) (L. reuteri DSM 12246 [7]) | Growth on carbon source (in words) (L. plantarum TIFN101 [8]) | NAD+ production (in words) (B. bifidum R0071 [4]) | NAD+ production (in words) (L. reuteri DSM 12246 [9]) | NAD+ production (in words) (L. plantarum TIFN101 [10])
CC(=O)N[C@H]1[C@H](O[C@H]2[C@@H](O)[C@@H](CO)O[C@@H](O[C@H]3[C@H](O)[C@@H](O)C(O)O[C@@H]3CO)[C@@H]2O)O[C@H](CO)[C@@H](O[C@@H]2O[C@H](CO)[C@H](O)[C@H](O)[C@H]2O)[C@@H]1O (mixture of isomers) [LNnT, lacto-N-neotetraose] | +++ (fast exponential growth reaching a plateau before 45 hours) | +++ (fast exponential growth reaching a plateau before 45 hours) | ++ (slower exponential growth reaching a plateau after 45 hours) | + | − | low amounts |  |  |  |  |  |  |  | 
CC(=O)N[C@H]1[C@H]([C@H](O)[C@H](O)CO)O[C@@](O[C@H]2[C@@H](O)[C@@H](CO)O[C@@H](O[C@H]3[C@H](O)[C@@H](O)C(O)O[C@@H]3CO)[C@@H]2O)(C(=O)O)C[C@@H]1O (some centres unmarked) [3′SL, 3′-sialyllactose] | +++ (fast exponential growth reaching a plateau before 45 hours) | +++ (fast exponential growth reaching a plateau before 45 hours) | − | − | − |  |  |  |  |  |  |  |  | 
CC(=O)N[C@H]1[C@H]([C@H](O)[C@H](O)CO)O[C@@](OC[C@H]2O[C@@H](O[C@H]3[C@H](O)[C@@H](O)[C@H](O)O[C@@H]3CO)[C@H](O)[C@@H](O)[C@H]2O)(C(=O)O)C[C@@H]1O [6′SL, 6′-sialyllactose] | +++ (fast exponential growth reaching a plateau before 45 hours) | +++ (fast exponential growth reaching a plateau before 45 hours) | − | − | − |  |  |  |  |  |  |  |  | 
C[C@@H]1O[C@@H](O[C@H]2[C@H](O[C@H]3[C@H](O[C@@H]4O[C@@H](C)[C@@H](O)[C@@H](O)[C@@H]4O)[C@@H](O)C(O)O[C@@H]3CO)O[C@H](CO)[C@H](O)[C@@H]2O)[C@@H](O)[C@H](O)[C@@H]1O (some centres unmarked) [DFL, difucosyllactose] |  |  |  |  |  |  | a bit more | a bit more |  |  |  |  |  | 
C[C@H](O)[C@@H](O)[C@@H](O)[C@H](O)C=O [L-fucose] |  |  |  |  |  |  |  |  | not able to grow |  |  |  |  | 
CC(=O)N[C@H]1[C@H](O[C@H]2[C@@H](O)[C@@H](CO)O[C@@H](O[C@H]3[C@H](O)[C@@H](O)C(O)O[C@@H]3CO)[C@@H]2O)O[C@H](CO)[C@@H](O)[C@@H]1O[C@@H]1O[C@H](CO)[C@H](O)[C@H](O)[C@H]1O (some centres unmarked) [LNT, lacto-N-tetraose] | +++ (fast exponential growth reaching a plateau before 45 hours) | +++ (fast exponential growth reaching a plateau before 45 hours) | +++ (fast exponential growth reaching a plateau before 45 hours) | + | − | low amounts |  |  |  |  |  |  |  | 
OC[C@H]1O[C@@H](O[C@H]2[C@H](O)[C@@H](O)C(O)O[C@@H]2CO)[C@H](O)[C@@H](O)[C@H]1O (some centres unmarked) [Lactose, lactose] | +++ (fast exponential growth reaching a plateau before 45 hours) | ++ (slower exponential growth reaching a plateau after 45 hours) | +++ (fast exponential growth reaching a plateau before 45 hours) | +++ (fast exponential growth reaching a plateau before 45 hours) | +++ (fast exponential growth reaching a plateau before 45 hours) |  |  |  |  | capable of growing | capable of growing | able to produce NAD+ | able to produce NAD+ | able to produce NAD+
